pEC50: −log10 of the molar value.
How the values were obtained:
[1] = biological target: T1, PBP3 from Escherichia coli (Escherichia coli, UniProt P0AD68); assay: Fluorescence polarization competition binding assay with Bocillin-FL
T1 construct: made in house
Excerpt: To determine the ability of boronic acid-based test PBP inhibitors to bind Penicillin Binding Proteins (PBPs), Bocillin-FL (fluorescently-labeled penicillin V; ThermoFisher Scientific) was used in a fluorescence polarization (FP) competition binding assay to assess boronic acid PBP inhibitor binding to PBP3 from Escherichia coli. PBP3 from Escherichia coli was cloned and purified as described previously (King, D. T, et al., ACS Infectious Diseases 2015, 1, 175-184). To establish assay conditions for competition binding, an enzyme titration/saturation binding experiment was performed. Bocillin-FL was prepared at […] in a buffer comprised of 50 mM Hepes (pH 8.0), 300 mM NaCl and 5% (v/v) glycerol. Saturation binding was performed by mixing […] of PBP3 ranging in concentrations from […] with 40 μl of the 0.2 μM Bocillin-FL solution, in individual wells of a black 384-well microplate. FP was measured immediately upon addition of PBP3 (Ex, Em), using a Cytation3 (BioTek) microplate reader and measured continuously for 60 minutes. […] The competition binding assay was validated using the beta-lactam ampicillin, with Bocillin-FL at a final concentration of 0.1 μM, PBP3 at a final concentration of 1.5 μM and concentrations of ampicillin from 0-1000 μM. PBP3 was incubated with ampicillin at different concentrations in a black 384-well microplate (Corning) for 30 minutes, then Bocillin-FL added and the FP immediately measured for 60 minutes. […] Binding assays for boronic acid PBP inhibitors were performed in an identical fashion. Representative results are shown in Table 3, where A represents a potency of >500 μM, B represents a potency between 30 μM and 500 μM inclusive, and C represents a potency of <30 μM. NT=Not Tested.

S. aureus ATCC 29213 = assay: Broth microdilution MIC assay; format: cell-based; details: Staphylococcus aureus, ATCC29213; broth microdilution, 16-20 hours at 37° C.; read-out: S. aureus 29213 MIC
How it was run: (§1)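 MIC taken by eye as the lowest compound concentration showing no growth after 16-20 hours at 37° C. Cultures grown 3-5 h in cation-supplemented Mueller-Hinton broth were added to 2-fold compound dilution series at a starting density of 5×10^5 CFU/mL, following CLSI methods.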

[2] = test system: hyper-permeable E. coli 901C; assay: Broth microdilution MIC assay; format: cell-based; details: Escherichia coli, read-out: E. coli 901C MIC
How it was run: as §1

E. coli DH5α/pLBII = assay: Broth microdilution MIC assay, empty vector control strain; format: cell-based; details: Escherichia coli, read-out: E. coli DH5α/pLBII Microbiological Activity (MIC)
How it was run: (§2)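 CLSI broth microdilution in cation-supplemented Mueller-Hinton broth, 2-fold compound dilutions, 5×10^5 CFU/mL inoculum, 16-20 h at 37° C, MIC read visually as lowest concentration without growth. E. coli DH5α carries CTX-M15 on pLBII under Lac promoter, or empty pLBII as control.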

[3] = test system: E. coli DH5α/pLBII-CTX-M15; assay: Broth microdilution MIC assay, engineered strain producing CTX-M15; format: cell-based, Escherichia coli; details: Escherichia coli, read-out: E. coli DH5α/pLBII-CTX-M15 Microbiological Activity (MIC)
How it was run: as §2

T1 sequence (P0AD68 1-577): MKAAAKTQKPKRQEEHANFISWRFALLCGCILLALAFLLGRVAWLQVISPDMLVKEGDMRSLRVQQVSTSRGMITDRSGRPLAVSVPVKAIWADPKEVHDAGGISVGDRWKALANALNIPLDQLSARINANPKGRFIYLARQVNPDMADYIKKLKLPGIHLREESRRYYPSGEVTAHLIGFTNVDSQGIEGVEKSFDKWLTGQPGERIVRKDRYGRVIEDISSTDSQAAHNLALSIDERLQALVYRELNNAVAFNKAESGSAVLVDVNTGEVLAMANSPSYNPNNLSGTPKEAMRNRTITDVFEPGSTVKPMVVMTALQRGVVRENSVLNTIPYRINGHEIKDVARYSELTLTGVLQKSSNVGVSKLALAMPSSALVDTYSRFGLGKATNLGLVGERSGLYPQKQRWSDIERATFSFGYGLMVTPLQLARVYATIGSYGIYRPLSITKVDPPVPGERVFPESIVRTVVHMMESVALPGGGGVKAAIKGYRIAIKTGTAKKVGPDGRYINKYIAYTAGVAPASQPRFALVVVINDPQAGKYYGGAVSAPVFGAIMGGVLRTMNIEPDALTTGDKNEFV

For `CCN1CCN(C(=O)N[C@@H](C(=O)N[C@H]2Cc3cccc(C(=O)O)c3OB2O)c2ccccc2)C(=O)C1=O` [Example 11, (R)-3-((R)-2-(4-ethyl-2,3-dioxopiperazine-1-carboxamido)-2-phenylacetamido)-2-hydroxy-3,4-dihydro-2H-benzo[e][1,2]oxaborinine-8-carboxylic acid], the pEC50 [1] was > 4.52, the MIC (S. aureus ATCC 29213) was 64 to 128 µg/mL and the MIC [2] was < 64 µg/mL. The MIC (E. coli DH5α/pLBII) was 32 to 64 µg/mL and the MIC [3] was 32 to 64 µg/mL.
For `CCN1CCN(C(=O)N[C@@H](CO)C(=O)N[C@H]2Cc3cccc(C(=O)O)c3OB2O)C(=O)C1=O` [Example 32, (R)-3-((S)-2-(4-Ethyl-2,3-dioxopiperazine-1-carboxamido)-3-hydroxy-propanamido)-2-hydroxy-3,4-dihydro-2H-benzo[e][1,2]oxaborinine-8-carboxylic acid], the pEC50 [1] was < 3.30, the MIC (S. aureus ATCC 29213) was > 128 µg/mL and the MIC [2] was > 128 µg/mL. The MIC (E. coli DH5α/pLBII) was > 512 µg/mL and the MIC [3] was > 512 µg/mL.
With `Nc1nc(C(NC(=O)N2CCN(Cc3ccccc3)C(=O)C2=O)C(=O)N[C@H]2Cc3cccc(C(=O)O)c3OB2O)cs1` (stereo partly drawn) [Example 49, (3R)-3-(2-(2-aminothiazol-4-yl)-2-(4-benzyl-2,3-dioxopiperazine-1-carboxamido)acetamido)-2-hydroxy-3,4-dihydro-2H-benzo[e][1,2]oxaborinine-8-carboxylic acid] the pEC50 [1] was > 4.52, the MIC (S. aureus ATCC 29213) was 64 to 128 µg/mL and the MIC [2] was < 64 µg/mL. It also gave an MIC (E. coli DH5α/pLBII) of 128 to 256 µg/mL and an MIC [3] of 128 to 256 µg/mL.
With `CCN1CCN(C(=O)N[C@H](CCC(N)=O)C(=O)N[C@H]2Cc3cccc(C(=O)O)c3OB2O)C(=O)C1=O` [Example 50, (R)-3-((R)-5-amino-2-(4-ethyl-2,3-dioxopiperazine-1-carboxamido)-5-oxopentanamide)-2-hydroxy-3,4-dihydro-2H-benzo[e][1,2]oxaborinine-8-carboxylic acid] the pEC50 [1] was < 3.30, the MIC (S. aureus ATCC 29213) was > 128 µg/mL and the MIC [2] was < 64 µg/mL. The MIC (E. coli DH5α/pLBII) was 32 to 64 µg/mL and the MIC [3] was 32 to 64 µg/mL.
With `CCN1CCN(C(=O)N[C@@H](C(=O)N[C@H]2Cc3cccc(C(=O)O)c3OB2O)C(C)(C)O)C(=O)C1=O` [Example 86, (R)-3-((R)-2-(4-ethyl-2,3-dioxopiperazine-1-carboxamido)-3-hydroxy-3-methylbutanamido)-2-hydroxy-3,4-dihydro-2H-benzo[e][1,2]oxaborinine-8-carboxylic acid] the pEC50 [1] was 3.30 to 4.52, the MIC (S. aureus ATCC 29213) was > 128 µg/mL and the MIC [2] was < 64 µg/mL. The MIC [3] was 32 to 64 µg/mL.
For `CCN1CCN(C(=O)NCCN2CCN(C(=O)NC(C(=O)N[C@H]3Cc4cccc(C(=O)O)c4OB3O)c3csc(N)n3)C(=O)C2=O)C(=O)C1=O` (stereo partly drawn) [Example 92, (3R)-3-(2-(2-aminothiazol-4-yl)-2-(4-(2-(4-ethyl-2,3-dioxopiperazine-1-carboxamido)ethyl)-2,3-dioxopiperazine-1-carboxamido)acetamido)-2-hydroxy-3,4-dihydro-2H-benzo[e][1,2]oxaborinine-8-carboxylic acid], the pEC50 [1] was 3.30 to 4.52, the MIC (S. aureus ATCC 29213) was > 128 µg/mL and the MIC [2] was < 64 µg/mL. The MIC [3] was 128 to 256 µg/mL.
For `CCCCCCN1CCN(C(=O)NC(C(=O)N[C@H]2Cc3cccc(C(=O)O)c3OB2O)c2csc(N)n2)C(=O)C1=O` (stereo partly drawn) [Example 93, (3R)-3-(2-(2-aminothiazol-4-yl)-2-(4-hexyl-2,3-dioxopiperazine-1-carboxamido)acetamido)-2-hydroxy-3,4-dihydro-2H-benzo[e][1,2]oxaborinine-8-carboxylic acid], the pEC50 [1] was > 4.52, the MIC (S. aureus ATCC 29213) was 64 to 128 µg/mL and the MIC [2] was < 64 µg/mL. It also gave an MIC [3] of 128 to 256 µg/mL.
With `CCCCCCCN1CCN(C(=O)NC(C(=O)N[C@H]2Cc3cccc(C(=O)O)c3OB2O)c2csc(N)n2)C(=O)C1=O` (stereo partly drawn) [Example 94, (3R)-3-(2-(2-aminothiazol-4-yl)-2-(4-heptyl-2,3-dioxopiperazine-1-carboxamido)acetamido)-2-hydroxy-3,4-dihydro-2H-benzo[e][1,2]oxaborinine-8-carboxylic acid] the pEC50 [1] was > 4.52, the MIC (S. aureus ATCC 29213) was 64 to 128 µg/mL and the MIC [2] was < 64 µg/mL. It also gave an MIC [3] of 128 to 256 µg/mL.
